Laboratory results from patent US9862726B2, “Opioid receptor modulating oxabicyclo[2.2.2]octane morphinans” (PURDUE PHARMA L.P., priority 2013, dated 2018).
Like-named read-outs stand apart in the source and are kept apart here.

Experiments:
μ-opioid receptor [1] = target: T1, μ-opioid receptor (Homo sapiens (Human), UniProt P35372); assay: μ-opioid receptor radioligand dose-displacement binding assay (HEK-293 cells)
Protocol: Radioligand dose-displacement binding assays for μ-opioid receptors used 0.3 nM [^3H]-diprenorphine (Perkin Elmer, Shelton, Conn.), with […] membrane protein/well in a final volume of 500 μl binding buffer (10 mM MgCl2, 1 mM EDTA, 5% DMSO, 50 mM HEPES, pH 7.4). Reactions were carried out in the absence or presence of increasing concentrations of unlabeled naloxone. All reactions were conducted in 96-deep well polypropylene plates for 2 hours at room temperature. Binding reactions were terminated by rapid filtration onto 96-well Unifilter GF/C filter plates (Perkin Elmer, Shelton, Conn.), presoaked in 0.5% polyethylenimine using a 96-well tissue harvester (Perkin Elmer, Shelton, Conn.) followed by performing three filtration washes with 500 μl of ice-cold binding buffer. Filter plates were subsequently dried at 50° C. for 2-3 hours. BetaScint scintillation cocktail (Perkin Elmer, Shelton, Conn.) was added (50 μl/well), and plates were counted using a Packard Top-Count for 1 min/well. The data were analyzed using the one-site competition curve fitting functions in GraphPad PRISM™ v. 3.0 or higher (San Diego, Calif.), or an in-house function for one-site competition curve-fitting.
(§1) In TABLE 3, binding affinity of certain Compounds of the Invention to the μ- and κ-opioid receptors was determined as described above using HEK-293 cells.

κ-opioid receptor = κ-opioid receptor (Homo sapiens (Human), UniProt P41145); assay: κ-opioid receptor functional assay (U-2 OS cells); format: biochemical; details: for Emax: relative to U69,593
Protocol: Functional [^35S]GTPγS binding assays were conducted as follows. κ opioid receptor membrane solution was prepared by sequentially adding final concentrations of 0.026 μg/μl κ membrane protein (in-house), 10 μg/mL saponin, 3 μM GDP and 0.20 nM [^35S]GTPγS to binding buffer (100 mM NaCl, 10 mM MgCl2, 20 mM HEPES, pH 7.4) on ice. The prepared membrane solution (190 μl/well) was transferred to 96-shallow well polypropylene plates containing 10 μl of 20× concentrated stock solutions of agonist prepared in DMSO. Plates were incubated for 30 min at a temperature of about 25° C. with shaking. Reactions were terminated by rapid filtration onto 96-well Unifilter GF/B filter plates (Perkin Elmer, Shelton, Conn.) using a 96-well tissue harvester (Packard) and followed by three filtration washes with 200 μl ice-cold binding buffer (10 mM NaH2PO4, 10 mM Na2HPO4, pH 7.4). Filter plates were subsequently dried at 50° C. for 2-3 hours. Fifty μl/well scintillation cocktail (Perkin Elmer, Shelton, Conn.) was added and plates were counted in a Packard Top-Count for 1 min/well.
κ GTP EC50 is the concentration of a compound providing 50% of the maximal response for the compound at a κ receptor.
κ GTP Emax (%) is the maximal effect elicited by a compound relative to the effect elicited by U69,593.
The following TABLE 5 provides results on the activity response of certain Compounds of the Invention at the μ- and κ-opioid receptors determined as described above using U-2 OS cells.

μ-opioid receptor [2] = target: T1, μ-opioid receptor; assay: μ-opioid receptor [35S]GTPγS functional assay (HEK-293 cells); format: biochemical; details: for Emax: relative to DAMGO
Protocol: (§2) [^35S]GTPγS functional assays were conducted using freshly thawed μ-receptor membranes prepared in-house from a cell line expressing recombinant μ opioid receptor in a HEK-293, CHO or U-2 OS cell background, or purchased from a commercial source (Perkin Elmer, Shelton, Conn.; or DiscovRx, Fremont, Calif.). Assay reactions were prepared by sequentially adding the following reagents to binding buffer (100 mM NaCl, 10 mM MgCl2, 20 mM HEPES, pH 7.4) on ice (final concentrations indicated): membrane protein (0.026 mg/mL), saponin ([…]), GDP ([…]) and [^35S]GTPγS (0.20 nM; Perkin Elmer, Shelton, Conn.). The prepared membrane solution (190 μl/well) was transferred to 96-shallow well polypropylene plates containing 10 μl of 20× concentrated stock solutions of the agonist [D-Ala^2, N-methyl-Phe^4 Gly-ol^5]-enkephalin (DAMGO) prepared in dimethyl sulfoxide (DMSO). Plates were incubated for 30 min at about 25° C. with shaking. Reactions were terminated by rapid filtration onto 96-well Unifilter GF/B filter plates (Perkin Elmer, Shelton, Conn.) using a 96-well tissue harvester (Perkin Elmer, Shelton, Conn.) followed by three filtration washes with 200 μl of ice-cold wash buffer (10 mM NaH2PO4, 10 mM Na2HPO4, pH 7.4). Filter plates were subsequently dried at 50° C. for 2-3 hours. BetaScint scintillation cocktail (Perkin Elmer, Shelton, Conn.) was added (50 μl/well) and plates were counted using a Packard Top-Count for 1 min/well. Data were analyzed using the sigmoidal dose-response curve fitting functions in GraphPad PRISM v. 3.0, or an in-house function for non-linear, sigmoidal dose-response curve-fitting. [^35S]GTPγS functional assays can also be conducted using freshly thawed μ-receptor membranes prepared from a cell line expressing recombinant μ opioid receptor in a CHO-K1 cell background.
(§3) μ GTP EC50 is the concentration of a compound providing 50% of the maximal response for the compound at a μ-opioid receptor.
(§4) μ GTP Emax (%) is the maximal effect elicited by a compound relative to the effect elicited by DAMGO, a standard μ agonist.
In TABLE 4, activity response of certain Compounds of the Invention to the μ- and κ-opioid receptors was determined as described above for functional assays using HEK-293 cells.

[3] = target: recombinant human kappa opioid receptor (κ) (Homo sapiens (Human), UniProt P41145); assay: κ-opioid receptor radioligand dose-displacement binding assay (HEK-293 cells)
Protocol: Membranes from HEK-293 cells, CHO cells or U-2 OS cells expressing the recombinant human kappa opioid receptor (κ) were prepared by lysing cells in ice cold hypotonic buffer (2.5 mM MgCl2, 50 mM HEPES, pH 7.4) (10 mL/10 cm dish) followed by homogenization with a tissue grinder/Teflon pestle. Membranes from a cell line naturally expressing kappa opioid receptor can also be used. Membranes were collected by centrifugation at 30,000×g for 15 min at 4° C. and pellets were resuspended in hypotonic buffer to a final concentration of 1-3 mg/mL. Protein concentrations were determined using the BioRad protein assay reagent with bovine serum albumen as standard. Aliquots of κ receptor membranes were stored at −80° C.
Radioligand dose displacement assays used 0.4 nM [^3H]-U69,593 (GE Healthcare, Piscataway, N.J.; 40 Ci/mmole) with 15 μg membrane protein (recombinant κ opioid receptor expressed in HEK 293 cells; in-house prep) in a final volume of 200 μl binding buffer (5% DMSO, 50 mM Trizma base, pH 7.4). Non-specific binding was determined in the presence of 10 μM unlabeled naloxone or U69,593. All reactions were performed in 96-well polypropylene plates for 1 hour at a temperature of about 25° C. Binding reactions were terminated by rapid filtration onto 96-well Unifilter GF/C filter plates (Perkin Elmer, Shelton, Conn.) presoaked in 0.5% polyethylenimine (Sigma). Harvesting was performed using a 96-well tissue harvester (Perkin Elmer, Shelton, Conn.) followed by five filtration washes with 200 μl ice-cold binding buffer. Filter plates were subsequently dried at 50° C. for 1-2 hours. Fifty μl/well scintillation cocktail (Perkin Elmer, Shelton, Conn.) was added and plates were counted in a Packard Top-Count for 1 min/well.
as §1

μ-opioid receptor [4] = target: T1, μ-opioid receptor; assay: μ-opioid receptor functional assay (U-2 OS cells); format: biochemical; details: for Emax: relative to DAMGO
Protocol: as §2, §3, §4

SMILES | Ki (μ-opioid receptor [1]) [nM] | EC50 (κ-opioid receptor) [nM] | Emax (κ-opioid receptor; U-2 OS cells) [%] | EC50 (μ-opioid receptor [2]) [µM] | Emax (μ-opioid receptor [2]; HEK-293 cells) [%] | Ki [3] [nM] | EC50 (μ-opioid receptor [4]) [nM] | Emax (μ-opioid receptor [4]; U-2 OS cells) [%] | EC50 (κ-opioid receptor; U-2 OS cells, read-out: Opioid Receptor κ EC50) [nM] | EC50 (μ-opioid receptor [2]; HEK-293 cells, bound given in μM, read-out: Opioid Receptor μ EC50) [µM] | EC50 (μ-opioid receptor [4]; U-2 OS cells, read-out: Opioid Receptor μ EC50) [nM]
COc1ccc2c(c1)[C@]13CCN(CC4CC4)[C@H](C2)[C@]12CC[C@@](NC(=O)CC(F)(F)F)(CO2)C3 [Compound 23, N-((4bR,6S,8aS,9R)-11-(cyclopropylmethyl)-3-methoxy-5,6,7,8,9,10-hexahydro-9,4b-(epiminoethano)-8a,6-(epoxymethano)phenanthren-6-yl)-3,3,3-trifluoropropanamide] | 136 ± 35.7 | 1.79 ± 0.25 | 115 ± 3.06 | 0.419 ± 0.108 | 39.5 ± 2.1 | 0.66 ± 0.22 | 21.6 ± 1.38 | 98.7 ± 1.45 |  |  | 
COc1ccc2c(c1)[C@]13CCN(CC4CC4)[C@H](C2)[C@]12CC[C@@](NC(=O)C1CC1)(CO2)C3 [Compound 22, N-((4bR,6S,8aS,9R)-11-(cyclopropylmethyl)-3-methoxy-5,6,7,8,9,10-hexahydro-9,4b-(epiminoethano)-8a,6-(epoxymethano)phenanthren-6-yl)cyclopropanecarboxamide] | 126 ± 20.7 | 0.9 ± 0.096 | 111 ± 2.6 | 0.939 ± 0.394 | 18 ± 0.41 | 0.3 ± 0.055 | 71.2 ± 10.8 | 90.7 ± 2.73 |  |  | 
COc1ccc2c(c1)[C@]13CCN(CC4CC4)[C@H](C2)[C@]12CC[C@@](NC(=O)CCc1ccccc1)(CO2)C3 [Compound 19, N-((4bR,6S,8aS,9R)-11-(cyclopropylmethyl)-3-methoxy-5,6,7,8,9,10-hexahydro-9,4b-(epiminoethano)-8a,6-(epoxymethano)phenanthren-6-yl)-3-phenylpropanamide] | 9.26 ± 3.2 | 2.84 ± 0.33 | 109.7 ± 0.33 | 0.0412 ± 0.0128 | 29.8 ± 1.96 | 1.58 ± 0.44 | 1.37 ± 0.11 | 102 ± 5.7 |  |  | 
COc1ccc2c(c1)[C@]13CCN(CC4CC4)[C@H](C2)[C@]12CC[C@@](N(Cc1ccccc1)Cc1ccccc1)(CO2)C3 [Compound 7, (4bR,6S,8aS,9R)—N,N-dibenzyl-11-(cyclopropylmethyl)-3-methoxy-5,6,7,8,9,10-hexahydro-9,4b-(epiminoethano)-8a,6-(epoxymethano)phenanthren-6-amine] | 64.3 ± 21.6 |  | 112 ± 3.93 |  | 5.67 ± 1.86 | 5.35 ± 0.91 |  | 84.3 ± 2.85 | 2.99 ± 0.33 | > 20 | 26.4 ± 3.96
COc1ccc2c(c1)[C@]13CCN(CC4CC4)[C@H](C2)[C@]12CC[C@@](NC(=O)c1ccccc1)(CO2)C3 [Compound 18, N-((4bR,6S,8aS,9R)-11-(cyclopropylmethyl)-3-methoxy-5,6,7,8,9,10-hexahydro-9,4b-(epiminoethano)-8a,6-(epoxymethano)phenanthren-6-yl)benzamide] | 35.9 ± 8.18 | 0.42 ± 0.016 | 111 ± 2.6 | 0.175 ± 0.0217 | 41 ± 1.58 | 0.032 ± 0.01 | 7.53 ± 0.69 | 107 ± 8.35 |  |  | 
COc1ccc2c(c1)[C@]13CCN(CC4CC4)[C@H](C2)[C@]12CC[C@@](N)(CO2)C3 [Compound 8, (4bR,6S,8aS,9R)-11-(cyclopropylmethyl)-3-methoxy-5,6,7,8,9,10-hexahydro-9,4b-(epiminoethano)-8a,6-(epoxymethano)phenanthren-6-amine] | 773 ± 161 | 34.5 ± 3.61 | 112 ± 1.33 | 1.11 ± 0.242 | 27.8 ± 2.17 | 4.72 ± 1.07 | 88.8 ± 20.6 | 106 ± 2.96 |  |  | 
CC(C)(C)C(=O)N[C@]12CC[C@@]3(OC1)[C@H]1Cc4ccc(O)cc4[C@@]3(CCN1CC1CC1)C2 [Compound 26, N-((4bR,6S,8aS,9R)-11-(cyclopropylmethyl)-3-hydroxy-5,6,7,8,9,10-hexahydro-9,4b-(epiminoethano)-8a,6-(epoxymethano)phenanthren-6-yl)pivalamide] | 0.056 ± 0.01 | 0.031 | 91.7 ± 2.73 | > 20 | 4 ± 1.53 | 0.059 ± 0.01 | 0.28 ± 0.01 | 89 ± 3.06 |  |  | 
COc1ccc2c(c1)[C@]13CCN(CC4CC4)[C@H](C2)[C@]12CC[C@@](NCc1ccccc1)(CO2)C3 [Compound 10, (4bR,6S,8aS,9R)-N-benzyl-11-(cyclopropylmethyl)-3-methoxy-5,6,7,8,9,10-hexahydro-9,4b-(epiminoethano)-8a,6-(epoxymethano)phenanthren-6-amine] | 25.9 ± 5.36 | 0.23 ± 0.01 | 107 ± 5.36 | 0.0533 ± 0.00393 | 31.7 ± 1.67 | 0.026 | 2.08 ± 0.12 | 110 ± 2.52 |  |  | 
COc1ccc2c(c1)[C@]13CCN(CC4CC4)[C@H](C2)[C@]12CC[C@@](NS(=O)(=O)c1ccc(Cl)cc1)(CO2)C3 [Compound 24, 4-Chloro-N-((4bR,6S,8aS,9R)-11-(cyclopropylmethyl)-3-methoxy-5,6,7,8,9,10-hexahydro-9,4b-(epiminoethano)-8a,6-(epoxymethano)phenanthren-6-yl)-benzenesulfonamide] | 0.29 ± 0.043 | 0.11 ± 0.011 | 114 ± 2.73 | > 20 | 6 | 0.057 ± 0.01 | 0.25 ± 0.014 | 71.7 ± 0.67 |  |  | 
